Counter-ions that a name gives are not always drawn.
What follows are molecules tested on Acinetobacter baumannii ATCC17961 (assay: Antimicrobial susceptibility testing: 90% growth inhibitory concentration (IC90) determination, Iso-Sensitest broth). Details: Acinetobacter baumannii, ATCC17961, 90% growth inhibitory concentration, Acinetobacter baumannii ATCC17961, Iso-Sensitest broth; read-out: ATCC 17961 IC90.
Assay type: cell-based
Summary of the method: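 Growth at OD600 was monitored every 20 min for 16 h at 35±2 °C, with bacteria inoculated at ~5×10^(5) CFU/ml into Iso-Sensitest medium. Compounds were tested as 10-point twofold dilutions (e.g. 10–0.02 μM final). The 90% inhibitory concentration comes from the log-phase growth.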

| IC90 | SMILES |
| --- | --- |
| 50 nM | COc1ccc(-c2cnc(C(=O)Nc3ccc(C(=O)N4CCN(C(=O)CC5(O)CNC5)CC4)c(Cl)c3)n2C)c(F)c1F [Example 177, N-[3-chloro-4-[4-[2-(3-hydroxyazetidin-3-yl)acetyl]piperazine-1-carbonyl]phenyl]-5-(2,3-difluoro-4-methoxy-phenyl)-1-methyl-imidazole-2-carboxamide formate] |
| 140 nM | COc1ccc(-c2cnc(C(=O)Nc3ccc(C(=O)N4CCN(C(=O)C5(O)CCNCC5)CC4)c(C)c3)n2C)c(Cl)c1F [Example 118, 5-(2-chloro-3-fluoro-4-methoxy-phenyl)-N-[4-[4-(4-hydroxypiperidine-4-carbonyl)piperazine-1-carbonyl]-3-methyl-phenyl]-1-methyl-imidazole-2-carboxamide formate] |
| 170 nM | COc1ccc(-c2cnc(C(=O)Nc3ccc(C(=O)N4CCC(C(=O)N5CCN[C@@H](CO)C5)CC4)c(Cl)c3)n2C)c(F)c1F [Example 30, N-[3-chloro-4-[4-[(3R)-3-(hydroxymethyl)piperazine-1-carbonyl]piperidine-1-carbonyl]phenyl]-5-(2,3-difluoro-4-methoxy-phenyl)-1-methyl-imidazole-2-carboxamide] |
| 70 nM | Cn1c(-c2ccc(OCF)c(F)c2F)cnc1C(=O)Nc1ccc(C(=O)N2CCN(C(=O)CC3(O)CCNCC3)CC2)c(Cl)c1 [Example 164, N-[3-chloro-4-[4-[2-(4-hydroxy-4-piperidyl)acetyl]piperazine-1-carbonyl]phenyl]-5-[2,3-difluoro-4-(fluoromethoxy)phenyl]-1-methyl-imidazole-2-carboxamide formate] |
| 70 nM | Cn1c(-c2ccc(OC(F)F)cc2F)cnc1C(=O)Nc1ccc(C(=O)N2CCN(C(=O)CC3CNC3)CC2)c(Cl)c1 [Example 178, N-[4-[4-[2-(azetidin-3-yl)acetyl]piperazine-1-carbonyl]-3-chloro-phenyl]-5-[4-(difluoromethoxy)-2-fluoro-phenyl]-1-methyl-imidazole-2-carboxamide formate] |
| 50 nM | COc1ccc(-c2cnc(C(=O)Nc3ccc(C(=O)N4CCN(C(=O)C[C@@H]5CCNC5)CC4)c(Cl)c3)n2C)c(F)c1F [Example 194, N-[3-chloro-4-[4-[2-[(3S)-pyrrolidin-3-yl]acetyl]piperazine-1-carbonyl]phenyl]-5-(2,3-difluoro-4-methoxy-phenyl)-1-methyl-imidazole-2-carboxamide formate] |
| 70 nM | Cn1c(-c2ccc(OC(F)F)c(F)c2F)cnc1C(=O)Nc1ccc(C(=O)N2CCC(C(=O)N3CC[C@H](N)C3)CC2)c(Cl)c1 [Example 46, N-[4-[4-[(3S)-3-aminopyrrolidine-1-carbonyl]piperidine-1-carbonyl]-3-chloro-phenyl]-5-[4-(difluoromethoxy)-2,3-difluoro-phenyl]-1-methyl-imidazole-2-carboxamide trifluoroacetate] |
| 110 nM | COc1ccc(-c2cnc(C(=O)Nc3ccc(C(=O)N4CCC(N)CC4)c(Cl)c3)n2C)c(F)c1F [Example 13, N-[4-(4-Aminopiperidine-1-carbonyl)-3-chloro-phenyl]-5-(2,3-difluoro-4-methoxy-phenyl)-1-methyl-imidazole-2-carboxamide formate] |
| 70 nM | COc1ccc(-c2cnc(C(=O)Nc3ccc(C(=O)N4CCC(C(=O)NCC5CNC5)CC4)c(Cl)c3)n2C)c(F)c1F [Example 31, N-(azetidin-3-ylmethyl)-1-[2-chloro-4-[[5-(2,3-difluoro-4-methoxy-phenyl)-1-methyl-imidazole-2-carbonyl]amino]benzoyl] piperidine-4-carboxamide formate] |
| 300 nM | COc1ccc(-c2cnc(C(=O)Nc3ccc(C(=O)N4CCC(NC(=O)CCOCCN)C4)c(Cl)c3)n2C)c(F)c1F (stereo not drawn) [Example 111, N-[4-[3-[3-(2-aminoethoxy)propanoylamino]pyrrolidine-1-carbonyl]-3-chloro-phenyl]-5-(2,3-difluoro-4-methoxy-phenyl)-1-methyl-imidazole-2-carboxamide formate] |
| 20 nM | COc1ccc(-c2cnc(C(=O)Nc3ccc(C(=O)N4CCN(C(=O)[C@H]5[C@@H]6CNC[C@@H]65)CC4)c(Cl)c3)n2C)c(F)c1F [Example 184, N-[4-[4-[(1R,5S)-3-azabicyclo[3.1.0]hexane-6-carbonyl]piperazine-1-carbonyl]-3-chloro-phenyl]-5-(2,3-difluoro-4-methoxy-phenyl)-1-methyl-imidazole-2-carboxamide trifluoroacetate] |
| 100 nM | Cn1c(-c2ccc(OCC#N)c(F)c2F)cnc1C(=O)Nc1ccc(C(=O)N2CCN(CCNC(=O)[C@H]3CCCN3)CC2)c(Cl)c1 [Example 213, (R)-N-(3-chloro-4-(4-(2-(pyrrolidine-2-carboxamido)ethyl)piperazine-1-carbonyl)phenyl)-5-(4-(cyanomethoxy)-2,3-difluorophenyl)-1-methyl-1H-imidazole-2-carboxamide 2,2,2-trifluoroacetate] |
| 150 nM | COc1ccc(-c2cnc(C(=O)Nc3ccc(C(=O)N4CCN(S(=O)(=O)CCN)CC4)c(Cl)c3)n2C)c(F)c1F [Example 239, N-[4-[4-(2-aminoethylsulfonyl)piper-razine-1-carbonyl]-3-chloro-phenyl]-5-(2,3-difluoro-4-methoxy-phenyl)-1-methyl-imidazole-2-carboxamide] |
| 60 nM | COc1ccc(-c2cnc(C(=O)Nc3ccc(C(=O)N4CCN(C(=O)C5CCN(C(=O)CN(C)C)CC5)CC4)c(Cl)c3)n2C)c(F)c1F [Example 120, N-[3-chloro-4-[4-[1-[2-(dimethylamino)acetyl]piperidine-4-carbonyl]piperazine-1-carbonyl]phenyl]-5-(2,3-difluoro-4-methoxy-phenyl)-1-methyl-imidazole-2-carboxamide] |
| 100 nM | COc1ccc(-c2cnc(C(=O)Nc3ccc(C(=O)N4CCN(C(=O)N[C@H]5CNC[C@@H]5O)CC4)c(C)c3)n2C)c(F)c1F [Example 285, 4-[4-[[5-(2,3-difluoro-4-methoxy-phenyl)-1-methyl-imidazole-2-carbonyl]amino]-2-methyl-benzoyl]-N-[(3S,4S)-4-hydroxypyrrolidin-3-yl]piperazine-1-carboxamide formate] |
| 150 nM | COc1ccc(-c2cnc(C(=O)Nc3ccc(C(=O)N4CCN(C(=O)CCOCCC(N)=O)CC4)c(Cl)c3)n2C)c(F)c1F [Example 279, N-(4-(4-(3-(3-Amino-3-oxopropoxy)propanoyl)piperazine-1-carbonyl)-3-chlorophenyl)-5-(2,3-difluoro-4-methoxyphenyl)-1-methyl-1H-imidazole-2-carboxamide] |
| 90 nM | COc1ccc(-c2cnc(C(=O)Nc3ccc(C(=O)N4CCN(C(=O)CCCC(N)=O)CC4)c(Cl)c3)n2C)c(F)c1F [Example 122, N-[4-[4-(5-amino-5-oxo-pentanoyl)piperazine-1-carbonyl]-3-chloro-phenyl]-5-(2,3-difluoro-4-methoxy-phenyl)-1-methyl-imidazole-2-carboxamide] |
| 140 nM | COc1ccc(-c2cnc(C(=O)Nc3ccc(C(=O)N4CC5(CC(C(=O)N6CCN[C@@H](CO)C6)C5)C4)c(Cl)c3)n2C)c(F)c1F [Example 41, N-[3-chloro-4-[6-[(3R)-3-(hydroxymethyl)piperazine-1-carbonyl]-2-azaspiro[3,3]heptane-2-carbonyl]phenyl]-5-(2,3-difluoro-4-methoxy-phenyl)-1-methyl-imidazole-2-carboxamide] |
| 50 nM | Cc1c(-c2cnc(C(=O)Nc3ccc(C(=O)N4CCN(C(=O)C[C@@H]5CCNC5)CC4)c(Cl)c3)n2C)ccc(OCF)c1F [Example 259, N-[3-chloro-4-[4-[2-[(3S)-pyrrolidin-3-yl]acetyl]piperazine-1-carbonyl]phenyl]-5-[3-fluoro-4-(fluoromethoxy)-2-methyl-phenyl]-1-methyl-imidazole-2-carboxamide formate] |
| 70 nM | COc1ccc(-c2cnc(C(=O)Nc3ccc(C(=O)N4CCC(C(=O)NC[C@H]5CCNC5)CC4)c(Cl)c3)n2C)c(F)c1F [Example 56, 1-[2-chloro-4-[[5-(2,3-difluoro-4-methoxy-phenyl)-1-methyl-imidazole-2-carbonyl]amino]benzoyl]-N-[[(3S)-pyrrolidin-3-yl]methyl]piperidine-4-carboxamide formate] |
| 100 nM | COc1ccc(-c2cnc(C(=O)Nc3ccc(C(=O)N4CCC(S(=O)(=O)N5CCNCC5)CC4)c(Cl)c3)n2C)c(F)c1F [Example 21, N-(3-chloro-4-(4-(piperazin-1-ylsulfonyl)piperidine-1-carbonyl)phenyl)-5-(2,3-difluoro-4-methoxyphenyl)-1-methyl-1H-imidazole-2-carboxamide formate] |

Same assay, conditions: Acinetobacter baumannii, ATCC17961, read-out: ATCC 17961 IC90

| SMILES | IC90 |
| --- | --- |
| CNCCNC(=O)C1CCN(C(=O)c2ccc(NC(=O)c3ncc(-c4ccc(OCC#N)c(F)c4F)n3C)cc2Cl)CC1 [Example 82, 1-(2-chloro-4-(5-(4-(cyanomethoxy)-2,3-difluorophenyl)-1-methyl-1H-imidazole-2-carboxamido)benzoyl)-N-(2-(methylamino)ethyl) piperidine-4-carboxamide formate] | 70 nM |
| Cn1c(-c2ccc(OCC#N)c(F)c2F)cnc1C(=O)Nc1ccc(C(=O)N2CCC(C(=O)N3CCN[C@H](CO)C3)CC2)c(Cl)c1 [Example 86, (S)-N-(3-ehloro-4-(4-(3-(hydroxymethyl)piperazine-1-carbonyl)piperidine-1-carbonyl)phenyl)-5-(4-(cyanomethoxy)-2,3-difluorophenyl)-1-methyl-1H-imidazole-2-carboxamide 2,2,2-trifluoroacetate] | 100 nM |
| COc1ccc(-c2cnc(C(=O)Nc3ccc(C(=O)N4CCN(CC5CCNC5)CC4)c(Cl)c3)n2C)c(F)c1F (stereo not drawn) [Example 291, N-[3-chloro-4-[4-(pyrrolidin-3-ylmethyl)piperazine-1-carbonyl]phenyl]-5-(2,3-difluoro-4-methoxy-phenyl)-1-methyl-imidazole-2-carboxamide formate] | 50 nM |

— US20220396565A1 (Hoffmann-La Roche Inc., priority 2020, published 2022)
